Laboratory results taken from US20150004134A1, “TREATMENT OF CANCER WITH HETEROCYCLIC INHIBITORS OF GLUTAMINASE” (Calithera Biosciences, Inc., priority 2012, published 2015).
pIC50: −log10 of the molar value. Like-named read-outs stand apart in the source and are kept apart here.

Experiments:
P493-6 (myc "on") cells = assay: Cell Proliferation Assay; format: cell-based; settings: P493-6, 72 h, read-out: Cell prolif P493 72 h IC50, P493-6 cells, 72 h
Summary of the method: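 Read-out: either Cell Titer Glo or Guava Viacount flow analysis after 72 h compound treatment of myc-on P493-6 cells (10,000/well, RPMI with 10% FBS) at 37 °C. DMSO held at 0.5% final.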

[1] = molecular target: T1, recombinant form of Glutaminase 1 (GAC) (Homo sapiens, UniProt O94925); assay: Recombinant Enzyme Assay - Time Dependence (60 min preincubation); format: biochemical
T1 sequence (O94925 137-598 isoform O94925-3 limits assumed): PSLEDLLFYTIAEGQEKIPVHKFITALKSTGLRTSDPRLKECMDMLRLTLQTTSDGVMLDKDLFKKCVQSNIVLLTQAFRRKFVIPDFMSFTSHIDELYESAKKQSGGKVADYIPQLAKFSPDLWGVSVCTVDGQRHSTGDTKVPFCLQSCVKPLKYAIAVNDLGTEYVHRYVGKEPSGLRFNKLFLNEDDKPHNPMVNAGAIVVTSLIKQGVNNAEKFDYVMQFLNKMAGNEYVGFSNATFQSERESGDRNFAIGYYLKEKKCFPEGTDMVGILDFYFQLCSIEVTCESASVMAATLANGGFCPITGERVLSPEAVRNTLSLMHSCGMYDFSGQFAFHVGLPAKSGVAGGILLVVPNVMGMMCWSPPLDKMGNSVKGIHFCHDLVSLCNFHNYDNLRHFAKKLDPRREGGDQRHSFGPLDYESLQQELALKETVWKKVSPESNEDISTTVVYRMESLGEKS
Summary of the method: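 Enzyme and compound preincubated 60 min at 20° C; reaction started with substrate buffer (50 mM Tris-HCl pH 8.0, 150 mM K2HPO4, 1 mM DTT, 20 mM L-glutamine, 2 mM NAD^+). NADH formation followed at 340 nm in kinetic mode for 15 min at 20° C; slopes (mAU/min) compared with DMSO and control-compound wells.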

[2] = read-out: GAC Delta N2 IC50 60 min preinc

| SMILES | pIC50 (P493-6 (myc "on") cells) | pIC50 [1, 2] | pIC50 [1] |
| --- | --- | --- | --- |
| O=C(Cc1ccccc1)Nc1ccc(CCCCc2nnc(NC(=O)Cc3cccc(OCCCO)c3)s2)nn1 [Compound 519] | 7.23 | 8.05 | – |
| O=C(Cc1ccccc1F)Nc1ccc(CCCCc2nnc(NC(=O)Cc3ccccc3)s2)nn1 [Compound 520] | 7.25 | 8.15 | – |
| O=C(Cc1ccccc1Cl)Nc1ccc(CCCCc2nnc(NC(=O)Cc3ccccc3)s2)nn1 [Compound 521] | 7.28 | 8.22 | – |
| O=C(Cc1ccccc1)Nc1ccc(CCCCc2nnc(NC(=O)Cc3ccccc3Cl)s2)nn1 [Compound 522] | 7.22 | 7.64 | – |
| Cc1ccccc1CC(=O)Nc1nnc(CCCCc2ccc(NC(=O)Cc3ccccc3)nn2)s1 [Compound 523] | 7.26 | 7.68 | – |
| CC(C)(C)OC(=O)NCc1cccc(CC(=O)Nc2nnc(CCCCc3ccc(NC(=O)C(C)(CO)CO)nn3)s2)c1 [Compound 530] | 6.55 | 7.26 | – |
| COc1ccccc1CC(=O)Nc1nnc(CCCCc2ccc(NC(=O)Cc3ccccc3F)nn2)s1 [Compound 532] | 7.23 | 8.22 | – |
| O=C(Cc1ccccc1)Nc1ccc(CCCCc2nnc(NC(=O)Cc3ccc(F)c(O)c3)s2)nn1 [Compound 538] | 7.52 | 8.40 | – |
| O=C(Cc1cccc(OCCCO)c1)Nc1ccc(CCCCc2nnc(NC(=O)Cc3ccccc3)s2)nn1 [Compound 539] | 7.35 | 8.05 | – |
| O=C(Cc1ccccc1)Nc1ccc(CCCCc2nnc(NC(=O)Cc3ccc(F)c(OCCO)c3)s2)nn1 [Compound 540] | 7.30 | 8.15 | – |
| CC(C)(C)NC(=O)Cc1cccc(CC(=O)Nc2ccc(CCCCc3nnc(NC(=O)Cc4ccccc4)s3)nn2)c1 [Compound 542] | 7.37 | 8.40 | – |
| CC(NC(=O)OC(C)(C)C)c1cccc(CC(=O)Nc2ccc(CCCCc3nnc(NC(=O)Cc4ccccc4)s3)nn2)c1 (centres unmarked) [Compound 543] | 8.30 | 8.40 | – |
| COc1ccc(CC(=O)Nc2nnc(CCCCc3ccc(NC(=O)Cc4ccccc4)nn3)s2)cc1F [Compound 544] | 7.36 | 8.22 | – |
| O=C(Cc1ccccc1)Nc1ccc(CCCCc2nnc(NC(=O)Cc3cccc(C(F)(F)F)c3)s2)nn1 [Compound 546] | 7.57 | 8.30 | – |
| O=C(Cc1ccccc1)Nc1ccc(CCCCc2nnc(NC(=O)Cc3ccc(Cl)c(Cl)c3)s2)nn1 [Compound 548] | 7.07 | 8.00 | – |
| O=C(Cc1ccccc1)Nc1ccc(CCCCc2nnc(NC(=O)Cc3ccc(F)c(Cl)c3)s2)nn1 [Compound 549] | 7.35 | 8.22 | – |
| COc1ccc(CC(=O)Nc2nnc(CCCCc3ccc(NC(=O)Cc4ccccc4)nn3)s2)cc1C [Compound 550] | 7.44 | 8.30 | – |
| CN1CCC(Oc2cccc(CC(=O)Nc3nnc(CCCCc4ccc(NC(=O)Cc5ccccc5)nn4)s3)c2)CC1 [Compound 551] | 6.90 | 8.00 | – |
| COC(=O)NCc1cccc(CC(=O)Nc2ccc(CCCCc3nnc(NC(=O)C(C)c4ccccc4)s3)nn2)c1 (centres unmarked) [Compound 553] | 7.72 | 8.30 | – |
| CCOC(=O)NCc1cccc(CC(=O)Nc2ccc(CCCCc3nnc(NC(=O)C(C)c4ccccc4)s3)nn2)c1 (centres unmarked) [Compound 555] | 8.00 | 8.40 | – |
| CCOc1cc(CC(=O)Nc2nnc(CCCCc3ccc(NC(=O)Cc4ccccc4)nn3)s2)ccc1O [Compound 556] | 6.92 | 8.30 | – |
| CC(N)c1cccc(CC(=O)Nc2nnc(CCCCc3ccc(NC(=O)Cc4ccccc4)nn3)s2)c1 (centres unmarked) [Compound 559] | 7.18 | 7.92 | – |
| COC(=O)NC(C)c1cccc(CC(=O)Nc2nnc(CCCCc3ccc(NC(=O)Cc4ccccc4)nn3)s2)c1 (centres unmarked) [Compound 561] | 8.40 | 8.40 | – |
| CCOC(=O)NC(C)c1cccc(CC(=O)Nc2nnc(CCCCc3ccc(NC(=O)Cc4ccccc4)nn3)s2)c1 (centres unmarked) [Compound 562] | 8.70 | 8.52 | – |
| CC(C)(C)C(=O)NCc1cccc(CC(=O)Nc2nnc(CCCCc3ccc(NC(=O)Cc4ccccc4)nn3)s2)c1 [Compound 564] | 8.70 | 8.40 | – |
| O=C(Cc1ccccc1Cl)Nc1ccc(CCCCc2nnc(NC(=O)Cc3ccccc3Cl)s2)nn1 [Compound 565] | 7.89 | 8.30 | – |

| SMILES | pIC50 (P493-6 (myc "on") cells) | pIC50 [1, 2] | pIC50 [1] |
| --- | --- | --- | --- |
| COC(=O)NCc1cccc(CC(=O)Nc2ccc(CCCCc3nnc(NC(=O)Cc4cccc(CNC(=O)OC)c4)s3)nn2)c1 [Compound 573] | 7.82 | 8.40 | – |
| CCC(O)C(=O)NCc1cccc(CC(=O)Nc2nnc(CCCCc3ccc(NC(=O)Cc4ccccc4)nn3)s2)c1 (centres unmarked) [Compound 575] | 7.40 | 8.15 | – |
| CC(C(=O)NCc1cccc(CC(=O)Nc2nnc(CCCCc3ccc(NC(=O)Cc4ccccc4)nn3)s2)c1)c1ccc(O)cc1 (centres unmarked) [Compound 576] | 7.89 | 8.52 | – |
| O=C(Cc1ccccc1)Nc1ccc(CCCCc2nnc(NC(=O)Cc3cccc(CNC(=O)C(O)C(F)(F)F)c3)s2)nn1 (centres unmarked) [Compound 577] | 7.47 | 8.40 | – |
| O=C(CC(O)C(F)(F)F)NCc1cccc(CC(=O)Nc2nnc(CCCCc3ccc(NC(=O)Cc4ccccc4)nn3)s2)c1 (centres unmarked) [Compound 578] | 7.66 | 8.40 | – |
| CC(O)(CC(=O)NCc1cccc(CC(=O)Nc2nnc(CCCCc3ccc(NC(=O)Cc4ccccc4)nn3)s2)c1)C(F)(F)F (centres unmarked) [Compound 579] | 8.05 | 8.40 | – |
| CC1(C)OCC(C)(C(=O)NCc2cccc(CC(=O)Nc3nnc(CCCCc4ccc(NC(=O)Cc5ccccc5)nn4)s3)c2)CO1 [Compound 580] | 7.89 | 8.30 | – |
| CC(CO)(CO)C(=O)NCc1cccc(CC(=O)Nc2nnc(CCCCc3ccc(NC(=O)Cc4ccccc4)nn3)s2)c1 [Compound 581] | 6.62 | 7.96 | – |
| CS(=O)(=O)CCCOc1cccc(CC(=O)Nc2nnc(CCCCc3ccc(NC(=O)Cc4ccccc4)nn3)s2)c1 [Compound 583] | 7.38 | 8.30 | – |
| CC(C(=O)Nc1nnc(CCCCc2ccc(NC(=O)Cc3ccccc3)nn2)s1)c1cccc(C(=O)c2ccccc2)c1 (centres unmarked) [Compound 587] | 7.24 | 8.15 | – |
| CCOC(=O)c1ccc(CC(=O)Nc2nnc(CCCCc3ccc(NC(=O)Cc4ccccc4)nn3)s2)cc1OCC [Compound 588] | 6.57 | 8.10 | – |
| CC(=O)NC(C)c1cccc(CC(=O)Nc2ccc(CCCCc3nnc(NC(=O)Cc4ccccc4)s3)nn2)c1 (centres unmarked) [Compound 590] | 7.06 | 8.15 | – |
| CCNC(=O)OC(C)c1cccc(CC(=O)Nc2nnc(CCCCc3ccc(NC(=O)Cc4ccccc4)nn3)s2)c1 (centres unmarked) [Compound 592] | 7.96 | 8.40 | – |
| CC(O)c1cccc(CC(=O)Nc2nnc(CCCCc3ccc(NC(=O)Cc4ccccc4)nn3)s2)c1 (centres unmarked) [Compound 593] | 7.48 | 8.30 | – |
| CCNC(=O)OC(C)c1cccc(CC(=O)Nc2ccc(CCCCc3nnc(NC(=O)C(C)c4ccccc4)s3)nn2)c1 (centres unmarked) [Compound 594] | 7.30 | 8.15 | – |
| CC(O)c1cccc(CC(=O)Nc2ccc(CCCCc3nnc(NC(=O)C(C)c4ccccc4)s3)nn2)c1 (centres unmarked) [Compound 595] | 7.23 | 8.15 | – |
| CCNC(=O)OC(C)c1cccc(CC(=O)Nc2ccc(CCCCc3nnc(NC(=O)Cc4cccc(OC(F)(F)F)c4)s3)nn2)c1 (centres unmarked) [Compound 596] | 6.48 | 7.82 | – |
| CC(O)c1cccc(CC(=O)Nc2ccc(CCCCc3nnc(NC(=O)Cc4cccc(OC(F)(F)F)c4)s3)nn2)c1 (centres unmarked) [Compound 597] | 7.77 | 8.30 | – |
| COC(=O)NC(C)c1cccc(CC(=O)Nc2ccc(CCCCc3nnc(NC(=O)C(C)c4ccccc4)s3)nn2)c1 (centres unmarked) [Compound 601] | 7.44 | 8.22 | – |
| CCOC(=O)NC(C)c1cccc(CC(=O)Nc2ccc(CCCCc3nnc(NC(=O)C(C)c4ccccc4)s3)nn2)c1 (centres unmarked) [Compound 602] | 7.44 | 8.22 | – |
| CC(C)(C)OC(=O)N1Cc2cccc(CC(=O)Nc3nnc(CCCCc4ccc(NC(=O)Cc5ccccc5)nn4)s3)c2C1 [Compound 608] | 7.43 | 8.15 | – |
| CCOC(=O)NCc1cccc(CC(=O)Nc2ccc(CCCCc3nnc(NC(=O)C(OC)c4ccccc4)s3)nn2)c1 (centres unmarked) [Compound 609] | 7.85 | 8.05 | – |
| CC(C)(C)OC(=O)N1Cc2cccc(CC(=O)Nc3ccc(CCCCc4nnc(NC(=O)Cc5cccc(OC(F)(F)F)c5)s4)nn3)c2C1 [Compound 612] | 7.00 | 7.19 | – |
| COc1cccc(CC(=O)Nc2ccc(CCCCc3nnc(NC(=O)Cc4cccc(OC(F)(F)F)c4)s3)nn2)c1 [Compound 617] | 7.40 | 8.30 | – |
| O=C(Cc1cccc(Cl)c1)Nc1ccc(CCCCc2nnc(NC(=O)Cc3cccc(OC(F)(F)F)c3)s2)nn1 [Compound 618] | 7.46 | 8.10 | – |
| CC(N)c1cccc(CC(=O)Nc2ccc(CCCCc3nnc(NC(=O)C(C)c4ccccc4)s3)nn2)c1 (centres unmarked) [Compound 619] | 6.82 | – | 7.89 |
